Experiments:
Type in all cases: cell-based, human
[1] = target: PPARγ LBD, sensor 110PPARγ383 (UniProt P37231+P9WHJ3, V318L)
[2] = target: PPARγ LBD, sensor 100PPARγ383 (UniProt P37231+P9WHJ3, V318L)
[3] = target: PPARγ LBD, sensor 110PPARγ393 (UniProt P37231+P9WHJ3, V318L)
[4] = target: PPARγ LBD, sensor 94PPARγ403 (UniProt P37231+P9WHJ3, V318L)
[5] = target: PPARγ LBD, sensor 110PPARγ_3GS_403 (UniProt P37231+P9WHJ3, V318L)
[6] = target: PPARγ LBD, sensor 94_1GS_PPARγ_1GS_403 (UniProt P37231+P9WHJ3, V318L)
[7] = target: PPARγ LBD, sensor 110PPARγ_3GS_383 (UniProt P37231+P9WHJ3, V318L)

Row | SMILES | effect on cell growth [1] | IC50 ([1]; read-out: IC50 for antagonism) [nM] | effect on cell growth [2] | effect on cell growth [3] | effect on cell growth [4] | EC50 [5] | EC50 [6] [nM] | effect on cell growth [7] | EC50 [1] | effect on cell growth [6]
1 | C[C@]12CC[C@@H]3c4ccc(O)cc4CC[C@H]3[C@@H]1CC[C@@H]2O [E2, 17β-estradiol] | no significant effect |  |  |  |  |  |  |  |  | 
2 | O=C(Nc1ccccc1)c1cc([N+](=O)[O-])ccc1Cl [GW9662] | inhibited cell growth | 1800 ± 1200 | inhibitory effect | increased cell growth substantially | strong positive responses | 1100 ± 200 nM | 500 ± 100 | weak positive response |  | 
3 | CCCCC/C=C/C=C1/C(=O)C=C[C@@H]1C/C=C\CCCC(=O)O [15D-PGJ2, 15-deoxy-Δ^12,14-Prostaglandin J2] | didn't induce a significant cell growth signal |  | significant response | almost no effect |  | could not be calculated |  |  | could not be calculated | strongest observed response

— article PMC3215401 (Biosensors & bioelectronics, 2011)
